Results from patent US4935509A (priority 1989, dated 1990).
Read-outs that look alike come from different tables or passages of the source.

Legend:
[1] = tested on: P388 wild-type cells; assay: MTT cell count (ID50), P388 wild-type leukemia cells in vitro; type: cell-based, murine; settings: Mus musculus, read-out: ID50 P388/Wild
Experimental: (§1) In the various assays set forth below the colorimetric determination of the number of cells was carried out by the following procedure using MTT.
(§2) 3-(4,5-dimethylthiazol-2-yl)-2,5-dipenyl tetrazolium bromide (MTT) was prepared as a 5 mg/ml stock solution in phosphate buffered saline, filtered through a 0.22 μm filter and stored for up to two weeks at 4° C. while protected from light. For use in the assay it was diluted to 1 mg/ml in a pH 7.2 solution of phenol-red-free RPMI 1640 tissue culture medium supplemented with 1 mM sodium pyruvate and 50 μg/ml gentamycin. The assay was done in flat bottomed 96-well microtiter plates. Culture medium was removed from the wells by inverting and blotting the plate, fifty μl of MTT solution was added to the cells in each well, and each plate was incubated at 37° C. in an atmosphere of 5% CO2 in air. After incubation, each plate was centrifuged for 5 minutes at 8000×g and excess MTT removed by inverting and blotting. Fifty μl of 95% ethanol was added to each well and the plate was shaken (speed 6.5 for 15 minutes) to solubilize the formazan in each well. The optical density of each well was measured using an automatic plate reader with a test wavelength of 570 nm and a reference wavelength of 630 nm.
(§3) The differential in vitro activity of the above compounds as compared to vincristine and vinblastine with regard to P388 wild-type and P388 multiple-drug resistant leukemia was carried out by the following procedure.
(§4) Tissue culture-adapted lines of the P388 wild-type and P388 multiple-drug resistant cells (principally resistant to adriamycin) were obtained from the American Type Culture Collection, Rockville, MD. Experiments were conducted in 96-well microtiter plates with 300 cells from either line seeded in a volume of 200 μl of tissue culture medium (RPMI 1640 supplemented to 10% (v/v) with heat-inactivated fetal bovine serum (FBS) and to […] with 1-glutamine). Cells and varying log^10 dilutions of test compound were added to triplicate sets of wells on the same day and cultures were incubated for 5 days at 37° C. in a humidified atmosphere of 5% CO2 in air. The number of cells per well at the end of the experiment was determined colorimetrically by the reduction of MTT as described above.

[2] = tested on: P388 multiple-drug resistant cells; assay: cells; type: cell-based, murine; settings: for Fold-resistance: ID50 resistant cell line divided by ID50 wildtype cell line, 7200 min; for IC50: Mus musculus, read-out: ID50 P3/88/resist.
Experimental: as §1, §2, §3, §4

[3] = tested on: WI-38 fibroblast; assay: MTT cell count (ID50), non-transformed human fibroblast cell line WI-38; type: cell-based; parameters: unit not given here; settings: 6 days incubation
Experimental: as §1, §2
(§5) The in vitro effects of the novel compounds as compared to vinblastine and vincristine on three human colon cancer cell lines and one non-transformedhuman cell line were determined by the following procedure.
(§6) The non-transformed human fibroblast cell line, WI-38 and two of the human colon cancer cell lines, COLO-320-DM and HT-29, were obtained from the American Type Culture Collection, Rockville, MD and the third human colon cancer cell line, OM-1, was supplied by E. I. du Pont de Nemours and Co., Inc., Glenholden, PA. Both OM-1 and COLO-320-DM cells were maintained by serial passage in RPMI 1640 tissue culture medium supplemented to 10% (v/v) with heat-inactivated FBS. HT-29 cells were similarly maintained in McCoys 5A tissue culture medium supplemented with 10% heat-inactivated FBS. COLO-320-DM cells were detached by gentle scraping while HT-29 and OM-1 cells were detached using 0.25% trypsin and 0.05% trypsin, 0.5 mM EDTA solutions respectively. All cultures were incubated at 37° C. in a humidified environment of 5% CO2 in air. Experiments were conducted in 96-well flat-bottomed plates. The initial cell seeds per well for each cell line were 4,000 for WI- 38; 2,000 for COLO-320-DM; 750 for HT-29; and 3,000 for OM-1, each in the appropriate tissue culture medium. Cells were plated 24 hours before test compound was added to allow cells to recover from the effects of physical scraping and trypsinization. Varying log10 dilutions of drug were added to triplicate sets of wells and cultures were incubated for 6 days at 37° in a humidified atmosphere of 5% CO2 in air. The number of cells per well at the end of the experiment was determined colorimetrically by the reduction of MTT as described above and the results for each compounds shown in Table II. For purposes of comparison, the concentration of each test compound required to reduce the final cell number to one-half of the number in drug-free control cultures (ID50) is shown in Table II.

[4] = tested on: COLO-320-DM; assay: MTT cell count (ID50), human colon cancer cell line COLO-320-DM; type: cell-based; settings: 144 h, read-out: ID50 COLO-320
Experimental: as §1, §2, §5, §6

[5] = tested on: HT-29; assay: MTT cell count (ID50), human colon cancer cell line HT-29; type: cell-based; settings: HT-29, 144 h, read-out: ID50 HT-29
Experimental: as §1, §2, §5, §6

[6] = tested on: OM-1; assay: MTT cell count (ID50), human colon cancer cell line OM-1; type: cell-based; settings: 144 h, read-out: ID50 OM-1
Experimental: as §1, §2, §5, §6

[7] = In vivo effect against P388 leukemia in mice (TD50, ED50, T.I.); settings: mouse, in vivo, ip
Text: (§7) The in vivo effect of the novel compounds of this invention against P388 leukemia as compared to vinblastine and vincristine, were compared by the following procedure.
(§8) P388 murine leukemia cells were obtained from Southern Research Institute, Birmingham, Ala., and were maintained by serial i.p. passage in C57BL/6 mice. Female (C57BL/6×DBA/2) F1 (BDF) mice of 6-8 weeks of age from Jackson Laboratories, Bar Harbor, Maine, received 1×10^6 P388 cells by i.p. inoculation on day 0. Compounds were dissolved in saline and administered i.p. to 10 tumor-bearing mice per dose level on days 0-4 and 7-9 using 5 to 10 log2 dilutions from a concentration known to be toxic. […] The therapeutic index (T.I.) for each compound was calculated by the formula: [formula]

[8] = tested on: P388 leukemia; assay: as above; settings: for T.I. (therapeutic index): calculated from TD50 and ED50; for ED50: Mus musculus, P388, ip; for cured tumor-bearing mice at doses which were not toxic: P388 leukemia mice, non-toxic doses
Text: as §7, §8

[9] = tested on: P388 leukemia; assay: Increase in mean survival time of mice bearing P388 leukemia; type: in vivo; settings: i.p.; for Increase in MST: vs vehicle
Experimental: The efficacy of the remaining compounds is clearly documented by the fact that each increased the mean survival time of tumor-bearing mice in a dose-dependentmanner. […] The percent increase in mean survival time (MST) which appears in Table IV was calculated by the following formula: [formula]

[10] = 120 h, P388 wild-type, 5 days incubation, MTT
[11] = 120 h, P388 multiple-drug-resistant (principally adriamycin), 5 days incubation, MTT

SMILES	IC50 ([1]; P388, 120 h) [nM]	Fold-resistance [2]	IC50 ([2]; P388, 120 h) [nM]	ID50 WI-38 fibroblast [3]	IC50 [4] [nM]	IC50 [5] [nM]	IC50 [6] [nM]	LD50 [7] [mg/kg]	T.I. (therapeutic index) [8]	ED50 [8] [mg/kg]	cured tumor-bearing mice at doses which were not toxic [8] [%]	IC50 [1, 10] [nM]	IC50 [2, 11] [nM]	IC50 ([4]; 6 days incubation, MTT) [nM]	IC50 ([5]; 6 days incubation, MTT) [nM]	IC50 ([6]; 6 days incubation, MTT) [nM]	other results
CC[C@]12C=CCN3CC[C@@]4(c5cc([C@@]6(C(=O)OC)C[C@H]7CN(CCc8c6[nH]c6ccccc86)Cc6ccccc67)c(OC)cc5N(C)[C@H]4[C@@](O)(C(=O)OC)[C@@H]1OC(C)=O)[C@@H]32 [A, (9R,11S)-15-[1,2,4,9,10,11,12,17-octahydro-11-(methoxycarbonyl)-indolo(2',3':6,7)azonino(1,2,3-bc)isoquinolin-11-yl]vindoline]	95	4	400	4 × 10^-7	400	30	400	0.28	< 1								Mean Survival Time ([9]; 0.12 mg/kg (optimal dose), vehicle 9.6 days (A), 10.1 days (E)): 19.7 days; Increase in MST ([9]; 0.12 mg/kg (optimal dose)): 105%
CC[C@]12C=CCN3CC[C@@]4(c5cc([C@@]6(C(=O)OC)C[C@H]7CN(CCc8c6[nH]c6ccccc86)C[C@H]6CCCC[C@H]67)c(OC)cc5N(C)[C@H]4[C@@](O)(C(=O)OC)[C@@H]1OC(C)=O)[C@@H]32 [C, (4aS,8aR,9R,11S)-15-[1,2,4,4a,5,6,7,8,8a,9,10,11,12,17-tetradecahydro-11-(methoxycarbonyl)-indolo(2',3':6,7,)azonino(1,2,3-bc)isoquinolin-11-yl]vindoline]	220	4	850	5 × 10^-7	400	300	400	0.1	1.0								ED50 ([8]; read-out: ED50 (extrapolated values)): 0.1 mg/kg; Mean Survival Time ([9]; 0.06 mg/kg (optimal dose), vehicle 10.1 days): 21.1 days; Increase in MST ([9]; 0.06 mg/kg (optimal dose)): 109%
CC[C@]12C=CCN3CC[C@@]4(c5cc([C@@]6(C(=O)OC)C[C@H]7CN(CCc8c6[nH]c6ccccc86)Cc6ccccc67)c(OC)cc5N(C=O)[C@H]4[C@@](O)(C(=O)OC)[C@@H]1OC(C)=O)[C@@H]32 [Compound B, (9R,11S)-15-[1,2,4,9,10,11,12,17-octahydro-11-(methoxycarbonyl)-indolo(2',3':6,7)azonino(1,2,3-bc)isoquinolin-11-yl]N-demethyl-N-formylvindoline]	47	11	510	1 × 10^-7	300	20	60	0.092	4.6	0.02	50						
CC[C@]12C=CCN3CC[C@@]4(c5cc([C@@]6(C(=O)OC)C[C@H]7CN(CCc8c6[nH]c6ccccc86)C[C@@H]6CCCC[C@H]76)c(OC)cc5N(C=O)[C@H]4[C@@](O)(C(=O)OC)[C@@H]1OC(C)=O)[C@@H]32 [Compound F, (4aR,8aS,9R,11S)-15-[1,2,4,4a,5,6,7,8,8a,9,10,11,12,17-tetradecahydro-11-(methoxycarbonyl)-indolo(2',3':6,7,)azonino(1,2,3-bc)isoquinolin-11-yl]N-demethyl-N-formylvindoline]	38	12	450	1 × 10^-7	400	30	20	0.045	2.8	0.016	50						
CC[C@]1(O)C[C@@H]2CN(CCc3c([nH]c4ccccc34)[C@@](C(=O)OC)(c3cc4c(cc3OC)N(C)[C@H]3[C@@](O)(C(=O)OC)[C@H](OC(C)=O)[C@]5(CC)C=CCN6CC[C@]43[C@@H]65)C2)C1 [Vinblastine, reference compound]		16		5 × 10^-8				0.79	1.9	0.41		19	310	50	30	50	
CC[C@]1(O)C[C@H]2CN(CCc3c([nH]c4ccccc34)[C@@](C(=O)OC)(c3cc4c(cc3OC)N(C=O)[C@H]3[C@@](O)(C(=O)OC)[C@H](OC(C)=O)[C@]5(CC)C=CCN6CC[C@]43[C@@H]65)C2)C1 [Vincristine, reference compound]		57		7 × 10^-8				1	5.9	0.17		7.2	410	400	30	50	
